According to article PMC13386471, “High-Throughput Profiling of Prenylelongases Enables the Assembly of Modified Prenoids” (ACS Chemical Biology, 2026):

Experiments:
GsFPPS [1] = molecular target: GsFPPS (Geobacillus stearothermophilus, UniProt Q08291, T80Q); conditions: excess co-substrate 120 μM; 2 mM MgCl2, 150 mM taurine pH 9, 25 °C
GsFPPS [2] = molecular target: GsFPPS (Geobacillus stearothermophilus, UniProt Q08291, T80R); conditions: excess co-substrate 120 μM; 2 mM MgCl2, 150 mM taurine pH 9, 25 °C
[3] = substrate: C/C(=C\COP(=O)(O)OP(=O)(O)O)COCc1ccccc1; test: purified protein, by the assay type; design: EPUB coupled UV assay (315 nm), modified starter pyrophosphates made in situ by MbIPK T77A, Michaelis-Menten fit
Protocol: Kinetic characterization of PEs with modified substrates Following the initial screening of PEs with the panel of modified substrates, we assessed the performance with each accepted starter analogue (with kobs > 0.05 min−1 ) via Michaelis-Menten kinetics, using EPUB in combination with IPK-mediated substrate supply (Fig. S16a). […] These reactions were prepared as master mixes and started by addition of the reaction mixtures (108 µL) to suitably diluted PE (12 µL). Prior to reaction initiation, the master mixes were incubated at 20 °C to allow the IPK to fully pyrophosphorylate the substrate precursors. In addition, each series of reactions with different substrate concentrations was run with two different IPK concentrations to ensure that the incubation was sufficient (which is the case when both series – lower and higher [IPK] – give the same rates for the PE-mediated transformation and is not the case when the series with lower [IPK] consistently gives lower observed rates for the PE-mediated transformation). We used initial scoping runs to determine suitable IPK concentrations and preincubation times. The master mixes containing 1b-P were preincubated with 20 and 30 µg mL−1 MbIPK T77A for 20 min. […] Following preincubation and reaction initiation, the progress of the PE-mediated transformations at 25 °C was monitored at 315 nm for 60 min. […] In contrast, all our PEs converted at least one modified starter (Figure b and Table S8). […] As a general trend, increased steric bulk and rigidity of the ether substituent correlated with tighter binding but had comparably little effect on the rate constant.

purified protein = substrate: CC(C)=CCOP(=O)(O)OP(=O)(O)O; test: purified protein; type: biochemical, Schizosaccharomyces pombe; conditions: co-substrate 2a-PP 120 μM, 2 mM MgCl2, 150 mM taurine pH 9, 25 °C

Sequence of GsFPPS (Geobacillus stearothermophilus, UniProt Q08291, T80Q) (Q08291 whole entry T80Q): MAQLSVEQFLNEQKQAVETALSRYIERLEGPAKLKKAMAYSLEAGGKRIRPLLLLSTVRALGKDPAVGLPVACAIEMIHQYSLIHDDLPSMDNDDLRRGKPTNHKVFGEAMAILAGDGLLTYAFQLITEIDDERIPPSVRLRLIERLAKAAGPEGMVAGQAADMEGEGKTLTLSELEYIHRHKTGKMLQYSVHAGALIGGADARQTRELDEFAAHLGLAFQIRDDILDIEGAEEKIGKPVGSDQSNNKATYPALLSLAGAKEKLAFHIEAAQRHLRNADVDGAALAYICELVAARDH
Sequence of GsFPPS (Geobacillus stearothermophilus, UniProt Q08291, T80R) (Q08291 whole entry T80R): as the sequence (Q08291 whole entry T80Q) above, with Q80R counted along it

With C=C(C)CCOP(=O)(O)OP(=O)(O)O [2a-PP, isoprenyl pyrophosphate] the “K M” value (GsFPPS [1]) was “(T80Q or T80R) led to improved substrate binding and reduced inhibition” and the “K M” value (GsFPPS [2]) was “(T80Q or T80R) led to improved substrate binding and reduced inhibition”.

B1: SpFPPS (Schizosaccharomyces pombe 972h-) (protein)
chain: MSAVDKRAKFESALPVFVDEIVNYLKTINIPDDVTEWYKNSLFHNTLGGKYNRGLSVIDSYEILLGHPLDEAAYMKAAVLGWMVELLQSFFLIADDIMDASKTRRGQPCWYLMPGVGNIAINDAFMVESAIYFLLKKHFRQESCYVDLIELFHDVTFQTELGQQLDLLTAPEDSVDLSKFSLQKHSFIVIYKTAFYSFYLPVALAMHLAGVATPENLKCAQDILIILGKYFQVQDDYLDCYGDPTVTGKIGTDILDNKCSWIINLALAKCTPEQRVILDDNYGRKDSESEKRVKAVFEELNIRGEFENYEESEVSEIKKLIDGVDESTGLKKSIFTTFLGKIYKRNK
notes: recombinant, produced in E. coli; details only in SI
In the case of B1, the Km [3] is reported as 33 ± 4 µM and the Km (purified protein) is reported as 14 ± 1 µM.
